13 compounds from US12612407B2, “Imidazo[2,1-f][1,2,4]triazin-4-amine derivatives as TLR7 agonist” (BEIGENE, LTD., priority 2020, dated 2026) can be followed below.

The test deals with T1, human TLR7 (Homo sapiens, UniProt Q9NYK1).
T1 construct: host or cells: HEK293 (HEK-Blue hTLR7)
T1 sequence (Q9NYK1 27-1049): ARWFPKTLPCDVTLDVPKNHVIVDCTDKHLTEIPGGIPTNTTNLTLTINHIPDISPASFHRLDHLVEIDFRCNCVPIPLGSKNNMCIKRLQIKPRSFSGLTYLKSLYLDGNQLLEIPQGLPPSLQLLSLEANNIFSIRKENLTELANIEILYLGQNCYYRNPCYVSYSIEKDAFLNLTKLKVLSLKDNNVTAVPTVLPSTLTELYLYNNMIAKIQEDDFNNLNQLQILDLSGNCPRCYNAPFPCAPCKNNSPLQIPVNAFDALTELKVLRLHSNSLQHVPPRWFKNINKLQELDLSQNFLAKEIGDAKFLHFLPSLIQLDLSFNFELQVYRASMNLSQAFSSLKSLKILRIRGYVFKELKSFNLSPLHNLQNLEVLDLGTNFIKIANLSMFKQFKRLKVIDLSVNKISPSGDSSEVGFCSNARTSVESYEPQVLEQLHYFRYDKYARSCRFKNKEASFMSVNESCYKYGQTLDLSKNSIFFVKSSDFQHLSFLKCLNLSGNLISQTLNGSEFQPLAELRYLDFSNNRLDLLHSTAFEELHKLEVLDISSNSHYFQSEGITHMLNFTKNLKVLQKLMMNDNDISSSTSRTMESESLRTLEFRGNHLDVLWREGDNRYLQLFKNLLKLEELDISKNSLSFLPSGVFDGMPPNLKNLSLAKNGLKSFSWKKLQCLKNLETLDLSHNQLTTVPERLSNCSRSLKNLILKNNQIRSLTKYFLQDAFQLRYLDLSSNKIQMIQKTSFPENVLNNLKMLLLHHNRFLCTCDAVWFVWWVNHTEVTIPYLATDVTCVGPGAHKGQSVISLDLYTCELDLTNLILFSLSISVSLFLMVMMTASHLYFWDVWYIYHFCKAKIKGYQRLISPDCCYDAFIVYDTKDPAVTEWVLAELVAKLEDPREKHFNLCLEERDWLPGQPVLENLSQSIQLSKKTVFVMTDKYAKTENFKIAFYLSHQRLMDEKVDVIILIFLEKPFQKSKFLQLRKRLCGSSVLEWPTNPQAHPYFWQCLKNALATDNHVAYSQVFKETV
Nature of the test: HEK293-Blue hTLR7 Reporter Assay (QUANTI-BLUE, SEAP readout). The following applies: HEK-Blue-hTLR7 cells, 24 hrs treatment, Table 1, B1-B232. It counts as cell-based. How it is done: HEK293-Blue hTLR7 Reporter Assay: HEK-Blue-hTLR7 cell line (Invivogen, Cat. No. hkb-htlr7) was designed so that the expression of the secreted embryonic alkaline phosphatase (SEAP) was induced by activating NF-κ and AP-1 via stimulating human TLR7 with TLR7 agonists. HEK-Blue-hTLR7 cells were seeded at a density of 4×10^4 cells/well in a volume of 180 μL in a 96-well plate in DMEM (Cat. No. 11965-092) supplemented with 10% (v/v) heat-inactivated fetal bovine serum (FBS) (Gibco, 10099-1441), 100 U/ml penicillin and 100 μg/ml streptomycin (Gibco, 15140122) containing 50 U/mL penicillin, […] and 10% (v/v) heat-inactivated fetal bovine serum. The cells were settled for 5 hrs, then treated with increasing amounts of tested compounds at 37° C. for 24 hrs. Then 20 μL of the supernatant from each well was incubated with 180 μL Quanti-blue substrate solution at 37° C. for 10-30 mins before the activity of the SEAP was determined at 620-655 nm using a spectrophotometer. The EC50 value for each compound was calculated with GraphPad Prism software using the sigmoidal dose-response function.
On the technique in general: A reporter such as luciferase makes a cellular process visible.
By EC50 is commonly meant the midpoint of the concentration-response curve. Higher therefore signals weaker potency. As for `CCCCOc1nc(N)c2ncc(Cc3ccc(N4CCNCC4)c(OC(C)C)c3)n2n1` [Compound B46, 2-butoxy-7-(3-isopropoxy-4-(piperazin-1-yl)benzyl)imidazo[2,1-f][1,2,4]triazin-4-amine], a half-maximal response (EC50) required 960 nM.
Then `CCCCOc1nc(N)c2ncc(Cc3cc(C)c(C4CCNCC4)cn3)n2n1` [Compound B47, 2-butoxy-7-((4-methyl-5-(piperidin-4-yl)pyridin-2-yl)methyl)imidazo[2,1-f][1,2,4]triazin-4-amine], with 462 nM.
For `CCCCOc1nc(N)c2ncc(Cc3cnc(N4CCNCC4)cc3C)n2n1` [Compound B48, 2-butoxy-7-((4-methyl-6-(piperazin-1-yl)pyridin-3-yl)methyl)imidazo[2,1-f][1,2,4]triazin-4-amine] the value was 4770 nM; for `CCCCOc1nc(N)c2ncc(Cc3cnc(N4CCN(C(=O)CCCN(C)C)CC4)c(C)c3)n2n1` [Compound B49, 1-(4-(5-((4-amino-2-butoxyimidazo[2,1-f][1,2,4]triazin-7-yl)methyl)-3-methylpyridin-2-yl)piperazin-1-yl)-4-(dimethylamino)butan-1-one], 124 nM; for `CCCCOc1nc(N)c2ncc(Cc3cnc(N4CCN(C(=O)CCCCN(C)C)CC4)c(C)c3)n2n1` [Compound B50, 1-(4-(5-((4-amino-2-butoxyimidazo[2,1-f][1,2,4]triazin-7-yl)methyl)-3-methylpyridin-2-yl)piperazin-1-yl)-5-(dimethylamino)pentan-1-one], 151 nM.
On to `CCCCOc1nc(N)c2ncc(Cc3cnc(N4CCCC4)c(C)c3)n2n1` [Compound B51, 2-butoxy-7-((5-methyl-6-(pyrrolidin-1-yl)pyridin-3-yl)methyl)imidazo[2,1-f][1,2,4]triazin-4-amine], for which the EC50 was above 10000 nM.
For `CCCCOc1nc(N)c2ncc(Cc3cnc(N4CCOCC4)c(C)c3)n2n1` [Compound B52, 2-butoxy-7-((5-methyl-6-morpholinopyridin-3-yl)methyl)imidazo[2,1-f][1,2,4]triazin-4-amine] the value was above 10000 nM; for `CCCCOc1nc(N)c2ncc(Cc3ccc(N4CCNCC4)nc3C)n2n1` [Compound B53, 2-butoxy-7-((2-methyl-6-(piperazin-1-yl)pyridin-3-yl)methyl)imidazo[2,1-f][1,2,4]triazin-4-amine], 803 nM.
Then `CCCCOc1nc(N)c2ncc(Cc3ccc(C4CCNCC4)nc3C)n2n1` [Compound B54, 2-butoxy-7-((2-methyl-6-(piperidin-4-yl)pyridin-3-yl)methyl)imidazo[2,1-f][1,2,4]triazin-4-amine], with 158 nM.
In turn, `CCCCOc1nc(N)c2ncc(Cc3cnc(N4CC(C)NC(C)C4)c(C)c3)n2n1` (stereo not shown) [Compound B55, 2-butoxy-7-((6-(3,5-dimethylpiperazin-1-yl)-5-methylpyridin-3-yl)methyl)imidazo[2,1-f][1,2,4]triazin-4-amine] had an EC50 of 196 nM.
`CCCCOc1nc(N)c2ncc(Cc3cnc(N4CCN(C(=O)C5CCNCC5)CC4)c(C)c3)n2n1` [Compound B56, (4-(5-((4-amino-2-butoxyimidazo[2,1-f][1,2,4]triazin-7-yl)methyl)-3-methylpyridin-2-yl)piperazin-1-yl)(piperidin-4-yl)methanone] displayed an EC50 of 422 nM.
Then `CCCCOc1nc(N)c2ncc(Cc3cnc(N4CCN(C(C)=O)CC4)c(C)c3)n2n1` [Compound B57, 1-(4-(5-((4-amino-2-butoxyimidazo[2,1-f][1,2,4]triazin-7-yl)methyl)-3-methylpyridin-2-yl)piperazin-1-yl)ethan-1-one], with 3800 nM; and `CCCCOc1nc(N)c2ncc(Cc3cnc(N4CCN(C(=O)CN(C)C(C)=O)CC4)c(C)c3)n2n1` [Compound B58, N-(2-(4-(5-((4-amino-2-butoxyimidazo[2,1-f][1,2,4]triazin-7-yl)methyl)-3-methylpyridin-2-yl)piperazin-1-yl)-2-oxoethyl)-N-methylacetamide], with 3250 nM.
